The subject of data set [1] is mitochondrial membrane potential (MMP) of CCRF-CEM cells. Description: MMP analysis, JC-1 staining and flow cytometry. It is filed as cell-based, human. As to conditions: 24 h. As to the method:
(§1) The treated cells (1 mL; 1 × 10^6 cells) were incubated for 24 h under the standard cell culture condition. Cells were further stained for 30 min with 10 µL of staining solution ([…] or H2DCFH-DA solution for ROS evaluation) according to the manufacturer’s protocol. Using the LSRFortessa FACS analyzer (Becton–Dickinson, Heidelberg, Germany), the amount of 1 × 10^4 cells was further measured as described earlier.

Data set [2] deals with U87MG glioblastoma cells. Description: RRA cytotoxicity, U87MG. Particulars: Homo sapiens, U-87 MG, 72 h.
Protocol: (§2) The sources of the HepG2 hepatocarcinoma [27], U87MG glioblastoma cells and its resistant epidermal growth factor receptor (EGFR) transfected subline, U87MG.ΔEGFR [28], HCT116 p53^+/+ colon adenocarcinoma cells and its resistant knock-out congener, HCT116 p53^−/− [29], MDA-MB-231-pcDNA3 breast adenocarcinoma cells and its multidrug-resistant breast cancer resistance protein (BCRP)-transfected MDA-MB-231-BCRP clone 23 subline [30] have also been described. To compare the activity of samples in HepG2 cells, the AML12 hepatocytes were used [31]. […] These culture media were used as complete media with additional 10% fetal bovine serum and 1% penicillin/streptomycin (Invitrogen, Eggenstein, Germany).
(§3) Botanicals were tested in the concentration range of 0.63–80 µg/mL, the isolated compounds at 0.78—100 µM; the treated cells were incubated for 72 h; the fluorescence was measured at the excitation wavelength of 544 nm and at the emission wavelengths of 590 nm using Infinite M2000 Pro™ plate reader (Tecan, Crailsheim, Germany).
The test system of data set [3] is HepG2 hepatocarcinoma cells. Put plainly: RRA cytotoxicity, HepG2. As to conditions: Homo sapiens, HepG2, 72 h.
Protocol: as §2, §3
Data set [4] concerns CEM/ADR5000 leukemia cells (P-gp-overexpressing). Put plainly: RRA cytotoxicity, CEM/ADR5000. As to conditions: for IC50: Homo sapiens, ADR5000, 72 h; for Degree of resistance: IC50 CEM/ADR5000 versus CCRF-CEM.
Description: These culture media were used as complete media with additional 10% fetal bovine serum and 1% penicillin/streptomycin (Invitrogen, Eggenstein, Germany).
Data set [5] deals with U87MG.ΔEGFR cells. Put plainly: RRA cytotoxicity, U87MG.ΔEGFR. Particulars: for IC50: Homo sapiens, 72 h; for Degree of resistance: IC50 U87MG.ΔEGFR versus U87MG.
Protocol: (§4) The sources of the HepG2 hepatocarcinoma [27], U87MG glioblastoma cells and its resistant epidermal growth factor receptor (EGFR) transfected subline, U87MG.ΔEGFR [28], HCT116 p53^+/+ colon adenocarcinoma cells and its resistant knock-out congener, HCT116 p53^−/− [29], MDA-MB-231-pcDNA3 breast adenocarcinoma cells and its multidrug-resistant breast cancer resistance protein (BCRP)-transfected MDA-MB-231-BCRP clone 23 subline [30] have also been described. […] These culture media were used as complete media with additional 10% fetal bovine serum and 1% penicillin/streptomycin (Invitrogen, Eggenstein, Germany).
as §3
Data set [6] relates to HCT116 p53^+/+ colon adenocarcinoma cells. Put plainly: RRA cytotoxicity, HCT116 p53^+/+. As to conditions: Homo sapiens, HCT-116, 72 h.
Protocol: as §2, §3
Data set [7] has as its system HCT116 p53^−/− cells. Description: RRA cytotoxicity, HCT116 p53^−/−. Particulars: for IC50: Homo sapiens, HCT-116, 72 h; for Degree of resistance: IC50 HCT116 p53^−/− versus HCT116 p53^+/+.
Protocol: as §4, §3
In data set [8] the test system is MDA-MB-231-BCRP cells. Description: RRA cytotoxicity, MDA-MB-231-BCRP. As to conditions: for IC50: Homo sapiens, MDA-MB-231/BCRP, 72 h; for Degree of resistance: IC50 MDA-MB-231-BCRP versus MDA-MB-231-pcDNA.
Protocol: as §4, §3
For data set [9], the system named is MDA-MB-231-pcDNA breast adenocarcinoma cells. Description: RRA cytotoxicity, MDA-MB-231-pcDNA. Particulars: Homo sapiens, 72 h.
Protocol: as §2, §3
Data set [10] deals with normal AML12 hepatocytes. Description: RRA cytotoxicity, normal AML12 hepatocytes. As to conditions: for Selectivity index: IC50 in AML12 versus IC50 in HepG2; for IC50: Mus musculus, AML12, 72 h.
Data set [11] concerns CCRF-CEM leukemia cells. Put plainly: Resazurin reduction assay (RRA) cytotoxicity, CCRF-CEM. Particulars: Homo sapiens, 72 h.
Data set [12] concerns 9 tested cancer cell lines. Description: RRA cytotoxicity, whole panel of cancer cell lines. Particulars: Homo sapiens, 72 h, read-out: IC50 against all the investigated cancer cell lines.
The test system of data set [13] is reactive oxygen species (ROS) production in CCRF-CEM cells. Put plainly: ROS production, H2DCFH-DA staining and flow cytometry. It is filed as cell-based, human. Particulars: 24 h, 50 µM, untreated cells 0.6%. The method, then: as §1
On the technique in general: In flow cytometry, cells or beads pass a laser one at a time.

These results are taken from article PMC10523748, “Cytotoxicity, acute and sub-chronic toxicities of the leaves of Bauhinia thonningii (Schumach.) Milne-Redh. (Caesalpiniaceae)” (BMC Complementary Medicine and Therapies, 2023).

Some results are limits rather than exact numbers.

As for `CC(C)[C@@H]1NC(=O)[C@H](C)OC(=O)[C@@H](C(C)C)NC(=O)[C@@H](C(C)C)OC(=O)[C@H](C(C)C)NC(=O)[C@H](C)OC(=O)[C@@H](C(C)C)NC(=O)[C@@H](C(C)C)OC(=O)[C@H](C(C)C)NC(=O)[C@H](C)OC(=O)[C@@H](C(C)C)NC(=O)[C@@H](C(C)C)OC1=O` [Valinomycin, valinomycin, reference compound], the “Effect on the integrity of the MMP” value in [1] is “strongly altered the integrity of the MMP”. The “Q1, cells with undamaged (intact) MMP” value in [1] (positive control, picture: at 25 (no unit), text: 2 × IC50) is given as 38.6%.

`O=c1c(O[C@@H]2O[C@H](CO)[C@@H](O)[C@H](O)[C@H]2O)c(-c2ccc(O)c(O)c2)oc2cc(O)cc(O)c12` [Compound 6, quercetin-3-O-β-glucopyranoside]: the IC50 in [2] came to 19 ± 2.01 µM; in data set [3], 21.5 ± 2.25 µM; in data set [4] it was 7.88 ± 0.58 µM; in data set [5] it was 33.5 ± 2.79 µM; in [6], 21.8 ± 2.11 µM; in data set [7], 12.5 ± 1.36 µM. The IC50 is 12.3 ± 0.97 µM in data set [8], 6.99 ± 0.28 µM in data set [9], > 50 µM in [10] and 9.12 ± 0.59 µM in [11]. Also, the Degree of resistance in [4] worked out at 0.90; in data set [5], 1.75; in data set [7], 0.57; in data set [8], 1.76. Moreover, in data set [10], the Selectivity index entry is “above 2”.

`COc1cc(-c2oc3cc(OC)c(C)c(O)c3c(=O)c2OC)ccc1O` [Compound 3, 6-C-methylquercetin 3,7,3'-trimethyl ether] registered a melting point of 185 to 187 °C. Further, in data set [2], it took 31 ± 2.65 µM to reach half-maximal inhibition (IC50). Moreover, the 50% inhibitory concentration (IC50) in [3] was determined as 23.6 ± 3.23 µM. In data set [4], this compound yielded an IC50 of 10.2 ± 0.3 µM and a Degree of resistance of 0.57. Moreover, in data set [5], the IC50 is 19.8 ± 0.96 µM and the Degree of resistance came out at 0.64. For the same compound, the midpoint of inhibition in data set [6], the IC50, lay at 19.8 ± 0.78 µM. In [7], the midpoint of inhibition, the IC50, lay at 17.2 ± 0.83 µM and the Degree of resistance turned out to be 0.87. In data set [8], it took 13.2 ± 1.48 µM to reach half-maximal inhibition (IC50) and the Degree of resistance is listed as 1.20. This compound also registered an IC50 in data set [9] of 11 ± 0.58 µM. In addition, the IC50 in [10] was > 50 µM. The IC50 in [12] is < 50 µM. The IC50 in data set [11] amounted to 17.9 ± 1.67 µM.

`OO` [H2O2, hydrogen peroxide, reference compound] displayed an ROS level in data set [13] of 94.30%.

`COc1ccc(-c2oc3cc(O)c(C)c(O)c3c(=O)c2OC)cc1O` [Compound 1, 6-C-methylquercetin-3, 4'-dimethyl ether] came in with a melting point of 195 to 197 °C. This compound also registered an IC50 in data set [2] of 27.2 ± 3.07 µM. Also, the IC50 in [3] came out at 23.5 ± 0.59 µM. In [4], this compound gave an IC50 of 10.3 ± 0.44 µM and a Degree of resistance of 0.72. In addition, in data set [5], the IC50 was 26.6 ± 1.13 µM and the Degree of resistance turned out to be 0.98. The IC50 in [6] was 21.2 ± 2.45 µM. In [7], this compound had an IC50 of 10.8 ± 1.11 µM and a Degree of resistance of 0.51. Moreover, in [8], half-maximal inhibition (IC50) was put at 17 ± 2.05 µM and the Degree of resistance came to 1.51. The IC50 in data set [9] stood at 11.3 ± 1.04 µM. For the same compound, in data set [10], the Selectivity index is on record as > 2.13 and the IC50 was > 50 µM. In addition, the IC50 in data set [12] is < 50 µM. The same compound came in with a concentration for half-maximal inhibition (IC50) in data set [11] of 14.2 ± 0.94 µM.

The compound `COc1c(C)c(O)c2c(=O)c(OC)c(-c3ccc(O)cc3)oc2c1C` [Compound 7, 6,8-C-dimethylkaempferol 3,7-dimethyl ether] displayed a melting point of 285 to 287 °C. The compound also had an IC50 in [2] of 19.3 ± 1.62 µM. This compound displayed an IC50 in data set [3] of 30.7 ± 1.86 µM. In data set [4], 2.86 ± 0.17 µM corresponded to half-maximal inhibition (IC50) and the Degree of resistance amounted to 0.43. In data set [5], this compound yielded an IC50 of 18 ± 2.21 µM and a Degree of resistance of 0.93. In [6], the IC50 came to 19.5 ± 2.05 µM. In data set [7], this compound returned an IC50 of 9.71 ± 0.76 µM and a Degree of resistance of 0.50. In data set [8], this compound came in with an IC50 of 8.15 ± 0.73 µM and a Degree of resistance of 4.22. This compound also returned an IC50 in data set [9] of 1.93 ± 0.19 µM. For the same compound, in data set [10], the Selectivity index is recorded as > 1.63 and the 50% inhibitory concentration (IC50) was > 50 µM. For the same compound, in data set [11], inhibition was half-maximal at 6.61 ± 0.41 µM (IC50).

As to `COc1cccc2c1C(=O)c1c(O)c3c(c(O)c1C2=O)C[C@@](O)(C(=O)CO)C[C@@H]3O[C@H]1C[C@H](N)[C@H](O)[C@H](C)O1` [Doxorubicin, doxorubicin, reference compound], the IC50 is 0.26 ± 0.03 µM in data set [2]; 4.56 ± 0.48 µM in data set [3]; 123 ± 10.9 µM in data set [4]; 0.98 ± 0.07 µM in data set [5]; 1.78 ± 0.08 µM in data set [7]; 0.79 ± 0.08 µM in data set [8]. For the same compound, the IC50 was 0.13 ± 0.01 µM in data set [9], > 50 µM in data set [10] and 0.02 µM in data set [11]. For the same compound, the Degree of resistance in data set [4] is listed as 6,683.00; in data set [5] it was 3.79; in [7] it was 3.73; in data set [8], 6.14.

On to `COc1cc2oc(-c3ccc(O)c(O)c3)c(OC)c(=O)c2c(O)c1C` [Compound 2, 6-C-methylquercetin-3,7-dimethyl ether], for which the melting point lay in the range of 195 to 197 °C. The compound also gave a half-inhibitory concentration (IC50) in data set [2] of 24.8 ± 2.22 µM. Moreover, the IC50 in data set [3] was determined as 19.6 ± 1.44 µM. In data set [4], this compound yielded an IC50 of 9.11 ± 0.18 µM and a Degree of resistance of 0.76. In [5], this compound registered an IC50 of 21.1 ± 2.4 µM and a Degree of resistance of 0.85. Half-maximal inhibition in data set [6] (IC50) required 12.3 ± 1.24 µM. In data set [7], this compound registered an IC50 of 9.2 ± 0.45 µM and a Degree of resistance of 0.75. In data set [8], the IC50 is 14.3 ± 1.12 µM and the Degree of resistance came out at 1.45. Besides, in [9], the midpoint of inhibition, the IC50, lay at 9.84 ± 0.66 µM. The IC50 in data set [10] was > 50 µM. Moreover, the IC50 in data set [11] worked out at 12 ± 1.25 µM.

As for `C[C@@H]1OC(Oc2c(-c3ccc(O)c(O)c3)oc3cc(O)cc(O)c3c2=O)[C@H](O)[C@H](O)[C@H]1O` (stereo partly drawn) [Compound 5, quercetin-3-O-L-rhamnopyranoside], the IC50 in [2] turned out to be 23.7 ± 1.77 µM; in [3], 28.3 ± 1.74 µM; in data set [4], 7.21 ± 0.61 µM; in [5], 31.1 ± 1.85 µM; in [6], 17.9 ± 1.26 µM; in data set [7], 13.2 ± 1.14 µM. Further, the IC50 in [8] was 16.8 ± 1.26 µM; in data set [9] it was 7.24 ± 0.47 µM; in [10], > 50 µM; in [11], 8.73 ± 0.62 µM. The Degree of resistance in data set [4] worked out at 0.83; in [5] it was 1.31; in data set [7], 0.73; in [8], 2.32. Further, the Selectivity index in [10] was > 1.77.

The IC50 is the midpoint of a concentration-inhibition curve. What is called melting point is the temperature, or range, at which the solid turns liquid.
